Results reported in ChEMBL document CHEMBL1132508, “N,N-dialkyl-dipeptidylamines as novel N-type calcium channel blockers” (Bioorg Med Chem Lett, 1999).
Square brackets hold non-standard residues; d marks the D form. Peptide text beside a SMILES is read from it. * marks the point of attachment. NMeL = CN[C@@H](CC(C)C)C(=O)O; Bz = O=C(c1ccccc1)*; NHtBu = CC(C)(C)N*

Columns and labels:
[1] = target: Voltage-dependent N-type calcium channel subunit alpha-1B (Homo sapiens, UniProt Q00975); experiment: In vitro inhibitory activity against N-type calcium channel in the IMR-32 human neuroblastoma cells; assay type: cell-based
Chain of Voltage-dependent N-type calcium channel subunit alpha-1B (Q00975 whole entry): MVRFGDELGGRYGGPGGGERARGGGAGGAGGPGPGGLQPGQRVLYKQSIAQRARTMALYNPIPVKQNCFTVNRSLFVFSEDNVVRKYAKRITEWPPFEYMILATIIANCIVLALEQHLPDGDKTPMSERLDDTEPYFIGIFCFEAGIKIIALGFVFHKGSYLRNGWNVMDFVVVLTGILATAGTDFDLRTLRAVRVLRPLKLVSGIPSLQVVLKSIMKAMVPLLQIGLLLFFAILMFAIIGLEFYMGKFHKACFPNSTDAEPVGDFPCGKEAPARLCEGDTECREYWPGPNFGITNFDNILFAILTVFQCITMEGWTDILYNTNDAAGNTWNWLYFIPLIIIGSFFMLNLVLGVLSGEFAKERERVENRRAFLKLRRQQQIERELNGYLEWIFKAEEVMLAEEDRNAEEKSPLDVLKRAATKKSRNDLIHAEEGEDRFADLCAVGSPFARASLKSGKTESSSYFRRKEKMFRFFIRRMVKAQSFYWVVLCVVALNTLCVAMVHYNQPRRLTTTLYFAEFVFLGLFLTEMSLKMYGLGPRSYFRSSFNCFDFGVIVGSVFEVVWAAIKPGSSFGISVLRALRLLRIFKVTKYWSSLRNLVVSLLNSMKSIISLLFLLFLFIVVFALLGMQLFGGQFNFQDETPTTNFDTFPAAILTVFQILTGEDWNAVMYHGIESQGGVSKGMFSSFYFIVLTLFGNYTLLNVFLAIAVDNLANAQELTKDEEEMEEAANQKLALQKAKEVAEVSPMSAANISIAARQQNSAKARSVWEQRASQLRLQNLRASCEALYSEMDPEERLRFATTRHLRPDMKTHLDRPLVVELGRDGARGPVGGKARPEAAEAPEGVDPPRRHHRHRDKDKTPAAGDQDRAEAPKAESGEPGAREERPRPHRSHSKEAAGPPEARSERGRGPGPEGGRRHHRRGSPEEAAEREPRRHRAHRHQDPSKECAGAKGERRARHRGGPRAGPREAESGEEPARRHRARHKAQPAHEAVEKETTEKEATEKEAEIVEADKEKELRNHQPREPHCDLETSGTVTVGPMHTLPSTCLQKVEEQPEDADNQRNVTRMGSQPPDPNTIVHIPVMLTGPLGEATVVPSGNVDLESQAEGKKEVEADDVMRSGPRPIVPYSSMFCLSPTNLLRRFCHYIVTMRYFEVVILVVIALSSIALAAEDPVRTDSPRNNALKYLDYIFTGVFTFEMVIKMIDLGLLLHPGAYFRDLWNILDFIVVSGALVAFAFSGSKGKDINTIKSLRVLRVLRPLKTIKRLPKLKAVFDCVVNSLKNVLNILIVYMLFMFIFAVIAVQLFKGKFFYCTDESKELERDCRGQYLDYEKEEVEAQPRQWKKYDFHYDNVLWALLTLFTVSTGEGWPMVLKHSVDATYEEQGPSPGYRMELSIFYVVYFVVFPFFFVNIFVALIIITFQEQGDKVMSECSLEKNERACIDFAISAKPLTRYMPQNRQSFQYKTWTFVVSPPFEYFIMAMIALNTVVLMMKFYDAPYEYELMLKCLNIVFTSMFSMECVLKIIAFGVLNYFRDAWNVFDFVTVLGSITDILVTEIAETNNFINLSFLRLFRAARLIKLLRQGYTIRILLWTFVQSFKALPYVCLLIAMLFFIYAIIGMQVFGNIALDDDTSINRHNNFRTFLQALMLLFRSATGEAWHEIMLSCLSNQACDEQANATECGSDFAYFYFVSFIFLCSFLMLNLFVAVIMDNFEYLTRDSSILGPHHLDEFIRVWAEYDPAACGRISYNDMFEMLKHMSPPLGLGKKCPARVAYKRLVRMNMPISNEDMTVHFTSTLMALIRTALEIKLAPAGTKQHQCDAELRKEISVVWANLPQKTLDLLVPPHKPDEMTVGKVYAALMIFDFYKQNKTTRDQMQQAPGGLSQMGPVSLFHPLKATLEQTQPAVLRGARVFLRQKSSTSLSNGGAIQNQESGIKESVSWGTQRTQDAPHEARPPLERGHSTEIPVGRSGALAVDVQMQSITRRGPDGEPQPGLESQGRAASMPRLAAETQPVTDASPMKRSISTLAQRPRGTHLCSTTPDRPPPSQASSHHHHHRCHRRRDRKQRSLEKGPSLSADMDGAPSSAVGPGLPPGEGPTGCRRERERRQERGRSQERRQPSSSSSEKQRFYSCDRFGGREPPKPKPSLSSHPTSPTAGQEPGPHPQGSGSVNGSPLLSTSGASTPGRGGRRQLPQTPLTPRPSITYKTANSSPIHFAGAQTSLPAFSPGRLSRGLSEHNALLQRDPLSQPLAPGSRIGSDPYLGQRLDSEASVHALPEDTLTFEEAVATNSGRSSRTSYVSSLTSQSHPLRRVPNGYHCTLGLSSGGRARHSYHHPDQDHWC

Mus musculus [2] = experiment: Ability to prevent the audiogenic seizure (tonic seizure phase) in DBA/2 mice (N = 5 mice/ dose tested) tested in vivo at a concentration of 10 mg/kg; assay type: functional
Mus musculus [3] = experiment: Ability to prevent the audiogenic seizure (tonic seizure phase) in DBA/2 mice (N = 5 mice/ dose tested) tested in vivo at a concentration of 3 mg/kg; assay type: functional
Mus musculus [4] = experiment: Ability to prevent the audiogenic seizure (tonic seizure phase) in DBA/2 mice (N = 5 mice/ dose tested) tested in vivo at a concentration of 100 mg/kg; assay type: functional

Row | SMILES | IC50 [1] | also measured
1 | CC(C)C[C@H](NC(=O)N1CCCCCC1)C(=O)N[C@@H](Cc1ccc(OC(=O)c2ccccc2)cc1)C(=O)OC(C)(C)C | 0.32 µM | –
2 | CC(C)C[C@@H](C(=O)N[C@@H](Cc1ccc(OC(=O)c2ccccc2)cc1)C(=O)NC(C)(C)C)N(C)CCC(C)(C)C | 0.4 µM | –
3 | CCOC(=O)CN(C)[C@@H](CC(C)C)C(=O)N[C@@H](Cc1ccc(OC(=O)c2ccccc2)cc1)C(=O)NC(C)(C)C | 4.4 µM | –
4 | CC(C)C[C@@H](C(=O)N[C@@H](Cc1ccc(OC(=O)c2ccccc2)cc1)C(=O)NC(C)(C)C)N1CCCCC1 | 1.4 µM | –
5 | CC(C)C[C@@H](C(=O)N[C@@H](Cc1ccc(OC(=O)c2ccccc2)cc1)C(=O)NC(C)(C)C)N1CCOCC1 | 6.4 µM | –
6 | CC(C)C[C@@H](C(=O)N[C@@H](Cc1ccc(OC(=O)c2ccccc2)cc1)C(=O)NC(C)(C)C)N(C)CCC(C)O (some centres undefined) | 2.2 µM | Protection (Mus musculus [2]): 40%
7 | CC(C)C[C@@H](C(=O)N[C@@H](Cc1ccc(OC(=O)c2ccccc2)cc1)C(=O)NC(C)(C)C)N(C)C1CCOCC1 | 3.1 µM | –
8 | CCCCN(C)[C@@H](CC(C)C)C(=O)N[C@@H](Cc1ccc(OC(=O)c2ccccc2)cc1)C(=O)NC(C)(C)C | 0.28 µM | –
9 | CC(C)CCN(C)[C@@H](CC(C)C)C(=O)N[C@@H](Cc1ccc(OC(=O)c2ccccc2)cc1)C(=O)NC(C)(C)C | 0.32 µM | Protection (Mus musculus [3]): 20%; Protection (Mus musculus [2]): 80%
10 | CC(C)C[C@H](NC(=O)N1CCCCCC1)C(=O)N[C@@H](Cc1ccc(OC(=O)c2ccccc2)cc1)C(=O)NC(C)(C)C | 0.59 µM | –
11 | CCC(C)N(C)[C@@H](CC(C)C)C(=O)N[C@@H](Cc1ccc(OC(=O)c2ccccc2)cc1)C(=O)NC(C)(C)C (some centres undefined) | 1.5 µM | –
12 | CC(C)C[C@@H](C(=O)N[C@@H](Cc1ccc(OC(=O)c2ccccc2)cc1)C(=O)NC(C)(C)C)N(C)C(C)C | 2.8 µM | –
13 | CC(C)C[C@@H](C(=O)N[C@@H](Cc1ccc(OC(=O)c2ccccc2)cc1)C(=O)NC(C)(C)C)N(C)C | 2.3 µM | –
14 | CC(C)C[C@@H](C(=O)N[C@@H](Cc1ccc(OC(=O)c2ccccc2)cc1)C(=O)NC(C)(C)C)N(C)CC(C)C | 0.38 µM | –
15 | CC(C)C[C@@H](C(=O)N[C@@H](Cc1ccc(OC(=O)c2ccccc2)cc1)C(=O)NC(C)(C)C)N(C)CC1CCCCC1 | 0.7 µM | Protection (Mus musculus [2]): 20%
16 | CC(C)C[C@@H](C(=O)N[C@@H](Cc1ccc(OC(=O)c2ccccc2)cc1)C(=O)NC(C)(C)C)N(C)C1CCCCC1 | 0.2 µM | Protection (Mus musculus [3]): 20%; Protection (Mus musculus [4]): 100%
17 | CC(C)C[C@H](N)C(=O)N[C@@H](Cc1ccc(OC(=O)c2ccccc2)cc1)C(=O)NC(C)(C)C (H-Leu-Tyr(Bz)-NHtBu) | 3.8 µM | –
18 | CN[C@@H](CC(C)C)C(=O)N[C@@H](Cc1ccc(OC(=O)c2ccccc2)cc1)C(=O)NC(C)(C)C (H-[NMeL]-Tyr(Bz)-NHtBu) | 2.3 µM | –
